“Also recorded” adds a separate entry of the source.
What was measured:
Type in all cases: cell-based
[1] = tested on: wild type mouse H3 receptor and mouse H3 receptor mutants MT1, MT2, MT3, MT5, MT6; details: 10 μM forskolin
Procedure: (§1) Wild type mouse H3 receptor cDNA and the five mouse H3 receptor mutant cDNAs were each transfected into cell line HEK293, and screened with G418 to obtain their respective stable clones. Northern analysis was used to check expression levels, and stable clones with roughly equal expression levels were used in the experiment.
(§2) Since H3 receptors are Gi-binding-type G protein-coupled receptors, cAMP levels were measured using ELISA. More specifically, 10^5 cells per well were cultured in a 24-well plate the day before testing. On the day of the test, cells were cultured for 15 minutes in the absence of serum, and then treated for 15 minutes with 0.5 mM IBMX. Forskolin (10 μM), histamine (10^−11 M to 10^−6 M) and thioperamide (10^−10 M to 10^−5 M) were respectively added, and the cells were treated for 15 minutes. The cAMP Enzyme Immunoassay (EIA) System (Amersham) was used to measure cAMP. The cells were lysed with 150 μl of lysing reagent 1B, provided with the kit. 5 μl of the cell lysate and rabbit anti-cAMP antibody were reacted by being allowed to stand undisturbed at 4° C. for two hours on an antibody-immobilized plate. Moreover, enzyme-labeled antibody was added and reacted by being allowed to stand undisturbed at 4° C. for one hour. The plate was washed with buffer, and enzyme substrate solution was then added and reacted by being allowed to stand undisturbed at room temperature for about 30 minutes. The reaction was stopped with 1 N sulfuric acid, and optical absorbance was then measured. A standard curve was produced from the optical absorbances of standard cAMP solutions, and cAMP levels were determined.

[2] = target: T1, wild type mouse H3 receptor and mouse H3 receptor mutants MT1, MT2, MT3, MT5, MT6 (Mus musculus, UniProt P58406, A357K)
T1 construct: expressed in transfected cells
Procedure: as §1, §2

[3] = target: T2, MT6 clone (constitutively active mouse H3 receptor mutant) (Mus musculus, UniProt P58406, A357K); experiment: cAMP levels by ELISA (cAMP EIA) in the HEK293 MT6 clone, with 10 μM forskolin; details: thioperamide with 10 μM forskolin; MT6 clone versus wild type H3
T2 construct: expressed in transfected cells
Procedure: as §1
as §2, with “Moreover, enzyme-labeled antibody was added and reacted by being allowed to stand undisturbed at 4° C. for one hour. The plate was washed with buffer, and enzyme substrate solution was then added and reacted by being allowed to stand undisturbed at room temperature for about 30 minutes.” left out

T1 sequence (P58406 whole entry A357K): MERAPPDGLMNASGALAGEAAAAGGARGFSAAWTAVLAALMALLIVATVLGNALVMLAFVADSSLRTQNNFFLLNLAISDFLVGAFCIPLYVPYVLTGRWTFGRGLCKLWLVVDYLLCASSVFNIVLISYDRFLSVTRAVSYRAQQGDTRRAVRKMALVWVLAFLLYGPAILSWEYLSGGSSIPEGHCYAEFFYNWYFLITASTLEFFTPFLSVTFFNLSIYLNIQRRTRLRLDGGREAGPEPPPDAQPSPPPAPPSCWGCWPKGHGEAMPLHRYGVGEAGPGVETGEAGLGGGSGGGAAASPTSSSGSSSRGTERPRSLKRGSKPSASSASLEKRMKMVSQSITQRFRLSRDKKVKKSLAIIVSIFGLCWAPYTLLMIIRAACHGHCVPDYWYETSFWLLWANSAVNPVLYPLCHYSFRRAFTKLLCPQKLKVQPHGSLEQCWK
T2 sequence (P58406 whole entry A357K): as above

In the case of pertussis toxin [PTX], the “effect of PTX on the cAMP increases caused by thioperamide” value ([1]; wild type H3 and MT6 clones, PTX 100 ng/ml for 18 hours) is reported as “inhibited the increases in cAMP caused by thioperamide”.
In the case of NCCc1c[nH]cn1 [histamine], the “change in cAMP levels caused by histamine” value ([1]; all clones, histamine 10^-11 M to 10^-6 M, 15 minutes, FIG. 4) is reported as “decrease in a histamine dose-dependent manner; also recorded: decreased histamine dose-dependently”.
In the case of S=C(NC1CCCCC1)N1CCC(c2cnc[nH]2)CC1 [thioperamide], the “change in cAMP levels caused by thioperamide” value [2] is reported as “increase with increased doses of thioperamide; also recorded: increase cAMP levels dose-dependently” and the “cAMP increase in MT6 clone compared to the wild type” value [3] is reported as “about five-fold”.

— patent US7279293B2 (priority 2002, dated 2007)
